Values quoted from earlier work in US20050059682A1, “Compositions and methods for treatment of cancer” (priority 2003, published 2005).
Values belong to the compound of their own block, whether it stands above or below them.

Key:
prostate cancer = details: single-agent chemotherapy of prostate cancer
HDAC = details: in vitro or in vivo for SAHA, SBHA, CBHA

Compound: O=c1[nH]cc(F)c(=O)[nH]1 [5-fluorouracil]
efficacy as single agent (prostate cancer): minimal efficacy

Compound: O=C(/C=C/c1cccc(C(=O)NO)c1)NO [CBHA, m-carboxy-cinnamic acid bishydroxamic acid]
concentration at which HDAC is inhibited (HDAC): micromolar concentration or lower

Compound: C/C=C1\NC(=O)[C@H]2CSSCC/C=C/[C@H](CC(=O)N[C@H](C(C)C)C(=O)N2)OC(=O)[C@H](C(C)C)NC1=O [FR901228]
concentration at which HDAC is inhibited (HDAC): micromolar concentrations

Compound: CC(/C=C/C(=O)NO)=C\[C@@H](C)C(=O)c1ccc(N(C)C)cc1 [TSA, trichostatin A]
inhibition of mammalian HDAC (mammalian HDAC): potent inhibitor

Compound: N.N.[Cl][Pt][Cl] [cisplatin]
efficacy as single agent (prostate cancer): minimal efficacy

Compound: O=P1(N(CCCl)CCCl)NCCCO1 (stereo not shown) [cyclophosphamide]
efficacy as single agent (prostate cancer): minimal efficacy

half life in vivo: short half life
tissue distribution (in vivo): excellent tissue distribution
Compound: Nc1ncn([C@H]2C[C@H](O)[C@@H](CO)O2)c(=O)n1 [decitabine, 5-aza-2′-deoxycytidine]

Compound: COc1cccc2c1C(=O)c1c(O)c3c(c(O)c1C2=O)C[C@@](O)(C(=O)CO)C[C@@H]3O[C@H]1C[C@H](N)[C@H](O)[C@H](C)O1 [doxorubicin]
efficacy as single agent (prostate cancer): minimal efficacy

Compound: C[C@]12CC[C@@H]3c4ccc(OC(=O)N(CCCl)CCCl)cc4CC[C@H]3[C@@H]1CC[C@@H]2O [estramustine]
efficacy as single agent (prostate cancer): minimal efficacy

Compound: CN(Cc1cnc2nc(N)nc(N)c2n1)c1ccc(C(=O)N[C@@H](CCC(=O)O)C(=O)O)cc1 [methotrexate]
efficacy as single agent (prostate cancer): minimal efficacy

Compound: O=C1c2c(O)ccc(O)c2C(=O)c2c(NCCNCCO)ccc(NCCNCCO)c21 [mitoxantrone]
efficacy as single agent (prostate cancer): minimal efficacy

Compound: depudecin
concentration at which HDAC is inhibited (HDAC): micromolar concentrations
